Experimental data as given in patent US8592422B2, “Bicyclic triazole and pyrazole lactams as allosteric modulators of mGluR5 receptors” (Vanderbilt University, priority 2010, dated 2013).

System: male Sprague-Dawley rats
Test: Reversal of amphetamine-induced hyperlocomotion
Type: in vivo, rat
Conditions: oral gavage, doses per FIG. 4; amphetamine 1 mg/kg sc
Procedure: Locomotor activity was assessed as mean distance traveled (cm) in standard 16×16 photocell testing chambers measuring 43.2 cm (Length)×43.2 cm (Width)×30.5 cm (Height) (Med Associates, St. Albans, Vt.). Animals were habituated to individual activity chambers for at least 30 min prior to drug administration. Following administration of drug or vehicle, activity was recorded for a 90 minute time period. Data was expressed as the mean (±SEM) distance traveled recorded in 5 min intervals over the test period. The data was analyzed using repeated measures analysis of variance (ANOVA) followed by post-hoc testing using Dunnett's test, when appropriate. A difference was considered significant when p≦0.05. […]
The animals were habituated in Smart Open Field locomotor activity test chambers (Hamilton-Kinder, San Diego, Calif.) with 16×16 photobeams to automatically record locomotor activity for 30 min and then dosed with vehicle or test compound. […] At 60 min, all rats were injected subcutaneously with 1 mg/kg amphetamine or vehicle and then monitored for an additional 60 min. Animals are monitored for a total of 120 minutes. Data are expressed as changes in ambulation defined as total number of beam breaks per 5 min periods.
The data for the dose-response studies were analyzed by a between-group analysis of variance. […]

O=C1c2cc(COc3ccccc3)nn2CCN1c1ccc(F)cn1
reversal of amphetamine-induced hyperlocomotion: reversal of amphetamine-induced hyperlocomotion
